The source of these data is patent US10969396B2, “In vitro method, use of an agent and collection device for the inhibition of coagulation in blood” (priority 2013, dated 2021).

For the experiment, the system named is activated partial thromboplastin time (APTT). Briefly: activated partial thromboplastin time (APTT) determination. Details: species or system human. Conditions: Example 1, plasma, N 48. On the procedure:
Tetrahydrofuran-2,3,4,5-tetracarboxylic acid (THTCA) was from TCI, Germany. Pristine blood collection tubes, i.e. tubes as originally provided not containing or respectively not filled or coated with additive, were from KABE Labortechnik GmbH, Germany, denoted KABEVETTE (GR).
Blood was collected from the antecubital vein from volunteers who had previously given their informed consent. […] Tubes were filled with blood completely to the mark (4.9 mL), and for tubes containing anticoagulant the blood was mixed well with the respective anticoagulant by inverting the tubes 4 times immediately after blood collection. Serum samples were treated according to the protocol of the manufacturer and used for biochemical analysis. […] Potassium EDTA plasma was also used for biochemical determinations.
The analyses of metabolites, minerals, and enzymes were performed using the automated analyzers cobas 6000 C and 6000 E. Haemostasis tests and haematologic parameters were measured by STA-R (Diagnostica Stago) analyzer and LH 780 analyzer (Beckman Coulter) respectively.

Each structure is given as a SMILES string. Counter-ions that a name gives are not always drawn.

Regarding `O=C(O)CC(O)(CC(=O)O)C(=O)O` [CA, Citric acid monohydrate], the “APTT Mean” value (listed as GR 15, monohydrate) came out at 29.94 s.
`O=C(O)CC(O)(CC(=O)O)C(=O)O` [citrate (BD), sodium citrate]: the “APTT Mean” value is 29.71 s.
